This test has as its system CD2F1 mice, L1210 leukemia ip, survival T/C. Kind of test: NCI In Vivo Anticancer Drug Screen. Data for tumor model L1210 Leukemia (intraperitoneal) in CD2F1 (CDF1) mice. Conditions: higher = longer survival. The procedure, abridged: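 Mice carrying a transplanted tumor received test compound or vehicle alone. The value is the measurement in the treated group divided by that in the vehicle-treated control group.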

Where [1] appears, read: endpoint: mean survival time, dose: 100.0 mg/kg/injection, schedule: Q01DX009 (ip), vehicle: saline with Tween-80.
Setting [2] is: endpoint: mean survival time, dose: 200.0 mg/kg/injection, schedule: Q01DX009 (ip), vehicle: saline with Tween-80.
Setting [3] is: endpoint: mean survival time, dose: 400.0 mg/kg/injection, schedule: Q01DX009 (ip), vehicle: saline with Tween-80.
Where [4] appears, read: endpoint: mean survival time, dose: 100.0 mg/kg/injection, schedule: Q04DX003 (ip), vehicle: saline with Tween-80.
Where [5] appears, read: endpoint: mean survival time, dose: 200.0 mg/kg/injection, schedule: Q04DX003 (ip), vehicle: saline with Tween-80.
The mark [6] stands for this setting: endpoint: mean survival time, dose: 400.0 mg/kg/injection, schedule: Q04DX003 (ip), vehicle: saline with Tween-80.
Setting [7] is: endpoint: mean survival time, dose: 100.0 mg/kg/injection, schedule: Q01DX009 (ip), vehicle: saline.
Setting [8] is: endpoint: mean survival time, dose: 200.0 mg/kg/injection, schedule: Q01DX009 (ip), vehicle: saline.
The mark [9] stands for this setting: endpoint: mean survival time, dose: 400.0 mg/kg/injection, schedule: Q01DX009 (ip), vehicle: saline.
The mark [10] stands for this setting: endpoint: mean survival time, dose: 100.0 mg/kg/injection, schedule: Q01DX001 (ip), vehicle: saline with Tween-80.
The mark [11] stands for this setting: endpoint: mean survival time, dose: 200.0 mg/kg/injection, schedule: Q01DX001 (ip), vehicle: saline with Tween-80.
[12] abbreviates: endpoint: mean survival time, dose: 400.0 mg/kg/injection, schedule: Q01DX001 (ip), vehicle: saline with Tween-80.
The mark [13] stands for this setting: endpoint: mean survival time, dose: 100.0 mg/kg/injection, schedule: Q04DX002 (ip), vehicle: saline with Tween-80.
[14] abbreviates: endpoint: mean survival time, dose: 200.0 mg/kg/injection, schedule: Q04DX002 (ip), vehicle: saline with Tween-80.
[15] abbreviates: endpoint: mean survival time, dose: 400.0 mg/kg/injection, schedule: Q04DX002 (ip), vehicle: saline with Tween-80.

The structures appear in SMILES notation. “And” between values parts separate entries of the source, which are not always exact repeats. Equal entries are not always repeated. Inconclusive results and toxic doses are left out.

Consider `O/N=c1/ccn(O)c2ccccc12`, for which the T/C is, setting by setting: (endpoint: mean survival time, dose: 0.25 mg/kg/injection, schedule: Q03HX024 (ip), vehicle: saline) 104 % of control; (endpoint: mean survival time, dose: 0.5 mg/kg/injection, schedule: Q03HX008 (ip), vehicle: saline) 112 % of control; (endpoint: mean survival time, dose: 0.5 mg/kg/injection, schedule: Q03HX016 (ip), vehicle: saline) 104 % of control; (endpoint: mean survival time, dose: 0.5 mg/kg/injection, schedule: Q03HX024 (ip), vehicle: saline) 116 % of control; (endpoint: mean survival time, dose: 1.0 mg/kg/injection, schedule: Q01DX009 (ip), vehicle: saline) 123 % of control; (endpoint: mean survival time, dose: 1.0 mg/kg/injection, schedule: Q03HX008 (ip), vehicle: saline) 113 % of control. Besides, the T/C is 113 % of control (endpoint: mean survival time, dose: 1.0 mg/kg/injection, schedule: Q03HX016 (ip), vehicle: saline); 123 % of control (endpoint: mean survival time, dose: 2.0 mg/kg/injection, schedule: Q03HX024 (ip), vehicle: saline); 124 % of control (endpoint: mean survival time, dose: 16.0 mg/kg/injection, schedule: Q01DX001 (ip), vehicle: saline); 96 % of control (endpoint: mean survival time, dose: 16.0 mg/kg/injection, schedule: Q04DX003 (ip), vehicle: saline); 109 % of control (endpoint: mean survival time, dose: 16.0 mg/kg/injection, schedule: Q08DX002 (ip), vehicle: saline); 88 % of control (endpoint: mean survival time, dose: 32.0 mg/kg/injection, schedule: Q08DX002 (ip), vehicle: saline).

For `CCNCC(=O)O[C@]1(CC)C(=O)OCc2c1cc1n(c2=O)Cc2cc3ccccc3nc2-1`, the T/C by setting is: (endpoint: median survival time, dose: 7.5 mg/kg/injection, schedule: Q04DX002 (ip), vehicle: saline) 122 % of control and 110 % of control; (endpoint: median survival time, dose: 7.5 mg/kg/injection, schedule: Q04HX004 (iv), vehicle: dextrose) 164 % of control; (endpoint: median survival time, dose: 7.5 mg/kg/injection, schedule: Q04HX004 (iv), vehicle: other) 179 % of control; (endpoint: median survival time, dose: 15.0 mg/kg/injection, schedule: Q04DX002 (ip), vehicle: saline) 117 % of control; (endpoint: median survival time, dose: 15.0 mg/kg/injection, schedule: Q04HX004 (iv), vehicle: dextrose) 198 % of control; (endpoint: median survival time, dose: 15.0 mg/kg/injection, schedule: Q04HX004 (iv), vehicle: other) 195 % of control. In addition, the T/C reads like this: (endpoint: median survival time, dose: 30.0 mg/kg/injection, schedule: Q04DX002 (ip), vehicle: saline) 170 % of control and 172 % of control; (endpoint: median survival time, dose: 30.0 mg/kg/injection, schedule: Q04HX004 (iv), vehicle: dextrose) 208 % of control; (endpoint: median survival time, dose: 30.0 mg/kg/injection, schedule: Q04HX004 (iv), vehicle: other) 223 % of control; (endpoint: median survival time, dose: 40.0 mg/kg/injection, schedule: Q04HX004 (iv), vehicle: other) 235 % of control.

With `CCOC(=O)C(Cc1ccccc1)P(=O)(OCC)OCC` (configuration not stated), the T/C was 108 % of control (endpoint: mean survival time, dose: 100.0 mg/kg/injection, schedule: Q01DX001 (ip), vehicle: saline); 108 % of control (endpoint: mean survival time, dose: 200.0 mg/kg/injection, schedule: Q01DX001 (ip), vehicle: saline); 100 % of control (endpoint: mean survival time, dose: 400.0 mg/kg/injection, schedule: Q01DX001 (ip), vehicle: saline).

As to `O=CC(O)C(O)C(OC1OC(CO)C(OC2OC(CO)C(O)C(O)C2O)C(O)C1O)C(O)CO` (configuration not stated), the T/C reads like this: under setting [1], 98 % of control; under setting [2], 95 % of control; under setting [3], 95 % of control.

For `COc1ccc2c(c1)CC/C2=N/O`, the T/C reads like this: under setting [4], 97 % of control; under setting [5], 103 % of control; under setting [6], 107 % of control.

As to `Cc1ccc(N2OCCN(C(=O)c3ccc([N+](=O)[O-])cc3)C2c2ccccc2)cc1` (configuration not stated), the T/C under setting [4] was 98 % of control, the T/C under setting [5] is 97 % of control and the T/C under setting [6] is 98 % of control.

On to `CC(=O)NC1CCC(C(C)C)CC1` (configuration not stated), for which, where the note is “endpoint: mean survival time, dose: 50.0 mg/kg/injection, schedule: Q01DX001 (ip), vehicle: saline with Tween-80”, the T/C was 102 % of control.

`CCOC(/C=C/c1ccccc1)OCC`: the T/C runs as follows: under setting [7], 100 % of control; under setting [8], 94 % of control; under setting [9], 103 % of control.

Regarding `COC1C(O)C(O)C(O)C(O)C1O` (configuration not stated), the T/C is 95 % of control (endpoint: mean survival time, dose: 100.0 mg/kg/injection, schedule: Q04DX003 (ip), vehicle: saline); 92 % of control (endpoint: mean survival time, dose: 200.0 mg/kg/injection, schedule: Q04DX003 (ip), vehicle: saline); 93 % of control (endpoint: mean survival time, dose: 400.0 mg/kg/injection, schedule: Q04DX003 (ip), vehicle: saline).

Take `CCCC(O)(CC)C1CCCC1C` (configuration not stated): the T/C was 100 % of control (endpoint: mean survival time, dose: 50.0 mg/kg/injection, schedule: Q01DX009 (ip), vehicle: saline with Tween-80); 95 % of control under setting [1]; 100 % of control under setting [2].

Turning to `NC(=O)c1csc(NC2OC(CO)C(O)C(O)C2O)n1` (configuration not stated), the T/C was 98 % of control (endpoint: mean survival time, dose: 12.5 mg/kg/injection, schedule: Q01DX005 (ip), vehicle: water); 96 % of control (endpoint: mean survival time, dose: 25.0 mg/kg/injection, schedule: Q01DX005 (ip), vehicle: water); 101 % of control (endpoint: mean survival time, dose: 50.0 mg/kg/injection, schedule: Q01DX005 (ip), vehicle: water); 96 % of control (endpoint: mean survival time, dose: 100.0 mg/kg/injection, schedule: Q01DX005 (ip), vehicle: water); 98 % of control (endpoint: mean survival time, dose: 200.0 mg/kg/injection, schedule: Q01DX005 (ip), vehicle: water).

`O=[N+]([O-])c1ccc2nsnc2c1`: the T/C is 103 % of control under setting [10]; 103 % of control under setting [1]; 106 % of control under setting [11]; 114 % of control under setting [2]; 107 % of control under setting [12].

As to `COc1ccc([N+](=O)[O-])cc1NC(=O)Nc1ccccc1Cl`, the T/C is, setting by setting: under setting [13], 86 % of control; under setting [14], 93 % of control; under setting [15], 104 % of control.

Consider `Cc1ccc(C#CC(C)(C)O)cn1`, for which the T/C reads like this: under setting [1], 94 % of control; under setting [2], 102 % of control; under setting [3], 122 % of control.

With `OCc1c(Cl)cccc1Cl`, the T/C by setting is: under setting [10], 104 % of control; under setting [1], 96 % of control and 102 % of control; under setting [13], 97 % of control and 105 % of control; under setting [4], 103 % of control; under setting [11], 102 % of control; under setting [2], 95 % of control and 96 % of control. The T/C is 97 % of control and 112 % of control under setting [14]; 113 % of control under setting [5]; 107 % of control under setting [12]; 101 % of control and 104 % of control under setting [3]; 101 % of control and 109 % of control under setting [15]; 103 % of control under setting [6].

Turning to `O=C1NC(=O)C(CCCCO)N1` (configuration not stated), the T/C is 101 % of control under setting [10]; 106 % of control under setting [11]; 98 % of control (endpoint: mean survival time, dose: 300.0 mg/kg/injection, schedule: Q01DX001 (ip), vehicle: saline with Tween-80).

For the compound `O=c1cc(C(Cl)C2OC(CO)C(O)C2O)nc[nH]1` (configuration not stated), the T/C is 100 % of control (endpoint: median survival time, dose: 18.13 mg/kg/injection, schedule: Q01DX005 (ip), vehicle: saline); 98 % of control (endpoint: median survival time, dose: 36.25 mg/kg/injection, schedule: Q01DX005 (ip), vehicle: saline); 101 % of control (endpoint: median survival time, dose: 72.5 mg/kg/injection, schedule: Q01DX005 (ip), vehicle: saline); 103 % of control (endpoint: median survival time, dose: 145.0 mg/kg/injection, schedule: Q01DX005 (ip), vehicle: saline).

With `OCC1C=CCC=C1`, the T/C by setting is: under setting [7], 95 % of control; under setting [8], 107 % of control; under setting [9], 101 % of control.

For `Nc1nc2c(ncn2C2OC(CO)C(O)C2O)c(=O)[nH]1.Nc1nc2c(ncn2C2OC(CO)C(O)C2O)c(=O)[nH]1.[NH2-].[NH2-].[Pt+2]` (configuration not stated), the T/C is 102 % of control and 106 % of control (endpoint: mean survival time, dose: 6.25 mg/kg/injection, schedule: Q01DX009 (ip), vehicle: water); 106 % of control and 112 % of control (endpoint: mean survival time, dose: 12.5 mg/kg/injection, schedule: Q01DX009 (ip), vehicle: water); 113 % of control and 124 % of control (endpoint: mean survival time, dose: 25.0 mg/kg/injection, schedule: Q01DX009 (ip), vehicle: water); 113 % of control (endpoint: mean survival time, dose: 50.0 mg/kg/injection, schedule: Q01DX009 (ip), vehicle: water); 123 % of control (endpoint: mean survival time, dose: 100.0 mg/kg/injection, schedule: Q01DX009 (ip), vehicle: water).

The record behind these values is PubChem BioAssay AID256 (DTP/NCI, 2004).
